Activity calls are given as the source filed them. The calls are words filed in the database; no cut-off is given here.
How the values were obtained:
[1] = target: T1, Amine oxidase [flavin-containing] A (Homo sapiens, UniProt P21397)
T1 sequence (P21397 whole entry): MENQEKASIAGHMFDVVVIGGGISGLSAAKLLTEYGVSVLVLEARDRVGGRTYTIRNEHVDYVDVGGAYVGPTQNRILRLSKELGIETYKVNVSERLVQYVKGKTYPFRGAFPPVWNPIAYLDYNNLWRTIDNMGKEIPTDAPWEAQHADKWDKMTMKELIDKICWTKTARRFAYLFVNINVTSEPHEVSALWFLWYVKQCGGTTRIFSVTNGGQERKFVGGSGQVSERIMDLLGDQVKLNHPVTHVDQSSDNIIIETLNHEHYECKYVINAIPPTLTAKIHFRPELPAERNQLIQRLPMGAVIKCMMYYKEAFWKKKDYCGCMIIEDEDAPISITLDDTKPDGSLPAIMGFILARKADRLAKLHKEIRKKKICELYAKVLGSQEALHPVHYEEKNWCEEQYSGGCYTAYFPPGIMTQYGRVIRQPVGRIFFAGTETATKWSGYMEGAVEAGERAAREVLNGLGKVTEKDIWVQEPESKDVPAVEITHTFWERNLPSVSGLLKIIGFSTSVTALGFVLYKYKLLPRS

[2] = target: T2, Amine oxidase [flavin-containing] B (Homo sapiens, UniProt P27338)
T2 sequence (P27338 whole entry): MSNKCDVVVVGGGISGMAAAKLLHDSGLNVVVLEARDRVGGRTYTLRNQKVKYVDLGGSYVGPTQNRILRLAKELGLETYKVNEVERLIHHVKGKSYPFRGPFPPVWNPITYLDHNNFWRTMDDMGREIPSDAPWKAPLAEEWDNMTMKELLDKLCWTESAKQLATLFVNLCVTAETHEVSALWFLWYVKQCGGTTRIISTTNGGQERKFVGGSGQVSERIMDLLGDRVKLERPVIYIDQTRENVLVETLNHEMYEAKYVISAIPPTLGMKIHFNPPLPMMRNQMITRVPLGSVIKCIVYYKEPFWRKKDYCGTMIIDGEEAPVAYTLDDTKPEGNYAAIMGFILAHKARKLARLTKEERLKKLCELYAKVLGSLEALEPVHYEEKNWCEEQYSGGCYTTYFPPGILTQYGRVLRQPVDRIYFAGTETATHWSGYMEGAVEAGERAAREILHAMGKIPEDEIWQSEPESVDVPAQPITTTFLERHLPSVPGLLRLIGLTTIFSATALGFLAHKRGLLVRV

[3] = target: T3, Lysine-specific histone demethylase 1A (Homo sapiens, UniProt O60341); assay: Inhibition of human recombinant KDM1A/CoREST expressed in Escherichia coli assessed as reduction in H2O2 release at 100 uM using synthetic mono-methylated H3-K4 peptide (21 amino acids) substrate by horseradish peroxidase coupled enzyme assay
[4] = target: T3, Lysine-specific histone demethylase 1A
[5] = target: T3, Lysine-specific histone demethylase 1A; assay: Inhibition of human recombinant KDM1A/CoREST expressed in Escherichia coli assessed as reduction in H2O2 release at 22 uM using synthetic mono-methylated H3-K4 peptide (21 amino acids) substrate by horseradish peroxidase coupled enzyme assay
[6] = target: T3, Lysine-specific histone demethylase 1A; assay: Inhibition of KDM1A in human NB4 cells assessed as increase in Gfi-1b mRNA expression up to 100 uM incubated for 24 hrs by quantitative RT-PCR method; format: cell-based; conditions: NB-4
[7] = target: T3, Lysine-specific histone demethylase 1A; remark: listed apart in the source

Structure (SMILES) | IC50 [1] | IC50 [2] | also measured
N[C@@]1(c2ccccc2)C[C@@H]1c1ccccc1 | 0.094 µM | 11.5 µM | 
NC[C@@H]1C[C@H]1c1ccccc1 (relative stereo) |  |  | inhibition [3]: 0%
CC[C@]1(N)C[C@@H]1c1ccccc1 | 1.43 µM | 0.088 µM | 
N[C@@]1(C(=O)O)C[C@H]1c1ccccc1 (relative stereo) |  |  | IC50 [4]: > 100 µM; inhibition [3]: 21%
CCC[C@@]1(N)C[C@H]1c1ccccc1 (relative stereo) | 0.527 µM | 0.6 µM | 
N[C@]1(c2ccccc2)C[C@H]1c1ccccc1 | 0.235 µM | 5.55 µM | 
N[C@]1(Cc2ccc3ccccc3c2)C[C@H]1c1ccccc1 (relative stereo) | 1.3 µM | 12.7 µM | 
CC[C@@]1(N)C[C@H]1c1ccccc1 | 6.8 µM | 33.3 µM | 
NCC(=O)c1ccccc1 |  |  | inhibition [5]: 30%
CCOC(=O)[C@]1(N)C[C@H]1c1ccccc1 (relative stereo) |  |  | IC50 [4]: > 100 µM; inhibition [3]: 11%
N[C@@H]1C[C@@H]1Oc1ccccc1 (relative stereo) |  |  | inhibition [3]: 0%
N[C@]1(Cc2ccccc2)C[C@@H]1c1ccccc1 (relative stereo) | 3.51 µM | 50.5 µM | 
N[C@@]1(Cc2ccccc2)C[C@@H]1c1ccccc1 | 8.31 µM | 74.3 µM | 
N[C@@]1(c2ccccc2)C[C@H]1c1ccccc1 (relative stereo) | 0.0828 µM | 10.4 µM | 
CC[C@@]1(N)C[C@@H]1c1ccccc1 (relative stereo) | 1.92 µM | 0.19 µM | 
N[C@]1(CCc2ccccc2)C[C@H]1c1ccccc1 (racemic) | 0.0214 µM | 0.941 µM | 
N[C@H]1C[C@@H]1Oc1ccccc1 (relative stereo) |  |  | inhibition [3]: 0%
C#CCN(C)CCCOc1ccc(Cl)cc1Cl [CLORGILINE] |  |  | inhibition [6]: inactive; IC50 [7]: Not Active
N[C@]1(Cc2ccccc2)C[C@H]1c1ccccc1 | 2.59 µM | 28.1 µM | 

Source: ChEMBL document CHEMBL3351849, “Synthesis, biological activity and mechanistic insights of 1-substituted cyclopropylamine derivatives: a novel class of irreversible inhibitors of histone demethylase KDM1A” (Eur J Med Chem, 2014)
